# Source: US9822114B2, “Tricyclic oxazolidinone antibiotic compounds” (Idorsia Pharmaceuticals Ltd, priority 2008, dated 2017)
# Tested on: M. catarrhalis A894
# Test: Minimal inhibitory concentration (MIC), microdilution method in cation-adjusted Mueller-Hinton Broth (CLSI M7-A7)
# Assay type: cell-based
# Conditions: strain A894; for MIC: Moraxella catarrhalis
# Procedure: Minimal inhibitory concentrations (MICs; mg/1) were determined in cation-adjusted Mueller-Hinton Broth by a microdilution method following the description given in “Methods for Dilution Antimicrobial Susceptibility Tests for Bacteria that Grow Aerobically”, Approved standard, 7th ed., Clinical and Laboratory Standards Institute (CLSI) Document M7-A7, Wayne, Pa., USA, 2006.
compound,measurement,value
"O=C1CSc2ccc(N3C[C@H](CCN[C@@H]4Cn5c(=O)cnc6cccc4c65)OC3=O)cc2N1 [Example 55, (S)-6-{2-[(S)-2-oxo-3-(3-oxo-3,4-dihydro-2H-benzo[1,4]thiazin-6-yl)-oxazolidin-5-yl]-ethylamino}-5,6-dihydro-pyrrolo[1,2,3-de]quinoxalin-3-one]",MIC,≤ 0.031 µg/mL
"O=C1O[C@H](CNCCC2Cn3c(=O)ccc4ccc(F)c2c43)CN1c1ccc2c(c1)OCCO2 (mixture of isomers) [Example 7, (1RS)-1-(2-{[(R)-3-(2,3-dihydro-benzo[1,4]dioxin-6-yl)-2-oxo-oxazolidin-5-ylmethyl]-amino}-ethyl)-9-fluoro-1,2-dihydro-pyrrolo[3,2,1-ij]quinolin-4-one]",MIC,≤ 0.031 µg/mL
"O=C1CSc2ccc(N3C[C@H](CCN(CCCO)CC4Cn5c(=O)ccc6ccc(F)c4c65)OC3=O)cc2N1 (mixture of isomers) [Example 90, (RS)-9-fluoro-1-[((3-hydroxy-propyl)-{2-[(S)-2-oxo-3-(3-oxo-3,4-dihydro-2H-benzo[1,4]thiazin-6-yl)-oxazolidin-5-yl]-ethyl}-amino)-methyl]-1,2-dihydro-pyrrolo[3,2,1-ij]quinolin-4-one]",MIC,≤ 0.031 µg/mL
"(1R,2R)-2-hydroxymethyl-1-{3-[(S)-2-oxo-3-(3-oxo-3,4-dihydro-2H-benzo[1,4]thiazin-6-yl)-oxazolidin-5-yl]-propylamino}-1,2-dihydro-pyrrolo[3,2,1-ij]quinolin-4-one and (1S,2S)-2-hydroxymethyl-1-{3-[(S)-2-oxo-3-(3-oxo-3,4-dihydro-2H-benzo[1,4]thiazin-6-yl)-oxazolidin-5-yl]-propylamino}-1,2-dihydro-pyrrolo[3,2,1-ij]quinolin-4-one [Example 164]",MIC for M. catarrhalis A894,0.031 µg/mL
"NC[C@H]1[C@H](NCCC[C@@H]2CN(c3ccc4c(c3)NC(=O)CS4)C(=O)O2)c2c(F)ccc3ccc(=O)n1c23 (relative stereo) [Example 188, (1R*,2S*)-2-aminomethyl-9-fluoro-1-{3-[(R)-2-oxo-3-(3-oxo-3,4-dihydro-2H-benzo[1,4]thiazin-6-yl)-oxazolidin-5-yl]-propylamino}-1,2-dihydro-pyrrolo[3,2,1-ij]quinolin-4-one]",MIC,≤ 0.031 µg/mL
"O=C1CSc2ccc(N3C[C@@H](CCCNC4Cn5c(=O)ccc6ccc(F)c4c65)OC3=O)nc2N1 (mixture of isomers) [Example 125, (RS)-9-fluoro-1-{3-[(R)-2-oxo-3-(3-oxo-3,4-dihydro-2H-pyrido[3,2-b][1,4]thiazin-6-yl)-oxazolidin-5-yl]-propylamino}-1,2-dihydro-pyrrolo[3,2,1-ij]quinolin-4-one]",MIC,≤ 0.031 µg/mL
"O=C1CSc2ccc(N3C[C@@H](CCCCN[C@H]4Cn5c(=O)ccc6ccc(F)c4c65)OC3=O)cc2N1 (racemic) [Example 159, (RS)-9-fluoro-1-{4-[(RS)-2-oxo-3-(3-oxo-3,4-dihydro-2H-benzo[1,4]thiazin-6-yl)-oxazolidin-5-yl]-butylamino}-1,2-dihydro-pyrrolo[3,2,1-ij]quinolin-4-one]",MIC,≤ 0.031 µg/mL
"CCCc1ccc(N2C[C@@H](CCNC3Cn4c(=O)ccc5ccc(F)c3c54)OC2=O)cc1 (mixture of isomers) [Example 59, (RS)-9-fluoro-1-{2-[(R)-2-oxo-3-(4-propyl-phenyl)-oxazolidin-5-yl]-ethylamino}-1,2-dihydro-pyrrolo[3,2,1-ij]quinolin-4-one]",MIC,4 µg/mL
"O=C1CSc2ccc(N3C[C@H]([C@H](O)CC(=O)N[C@@H]4Cn5c(=O)ccc6ccc(F)c4c65)OC3=O)cc2N1 (mixture of isomers) [Example 108, (RS)—N—((S)-9-fluoro-4-oxo-1,2-dihydro-4H-pyrrolo[3,2,1-ij]quinolin-1-yl)-3-hydroxy-3-[(RS)-2-oxo-3-(3-oxo-3,4-dihydro-2H-benzo[1,4]thiazin-6-yl)-oxazolidin-5-yl]-propionamide]",MIC,≤ 0.031 µg/mL
"O=C1CSc2ccc(N3C[C@@H](CCCNC[C@@H]4Cn5c(=O)ccc6cccc4c65)OC3=O)cc2N1 (racemic) [Example 83, (RS)-1-({3-[(RS)-2-oxo-3-(3-oxo-3,4-dihydro-2H-benzo[1,4]thiazin-6-yl)-oxazolidin-5-yl]-propylamino}-methyl)-1,2-dihydro-pyrrolo[3,2,1-ij]quinolin-4-one]",MIC,≤ 0.031 µg/mL
"O=C1COc2ccc(N3C[C@@H](CCCNC4Cn5c(=O)cnc6cccc4c65)OC3=O)cc2N1 (mixture of isomers) [Example 21, (6RS)-6-{3-[(R)-2-oxo-3-(3-oxo-3,4-dihydro-2H-benzo[1,4]oxazin-6-yl)-oxazolidin-5-yl]-propylamino}-5,6-dihydro-pyrrolo[1,2,3-de]quinoxalin-3-one]",MIC,≤ 0.031 µg/mL
"O=C1CSc2ccc(N3C[C@@H](CCCN[C@@H]4Cn5c(=O)ccc6cccc4c65)OC3=O)cc2N1 [Example 72, (S)-1-{3-[(R)-2-oxo-3-(3-oxo-3,4-dihydro-2H-benzo[1,4]thiazin-6-yl)-oxazolidin-5-yl]-propylamino}-1,2-dihydro-pyrrolo[3,2,1-ij]quinolin-4-one]",MIC,≤ 0.031 µg/mL
"O=C1CSc2ccc(N3C[C@@H](CCNCC4Cn5c(=O)ccc6cccc4c65)OC3=O)cc2N1 (mixture of isomers) [Example 53, (RS)-1-({2-[(R)-2-oxo-3-(3-oxo-3,4-dihydro-2H-benzo[1,4]thiazin-6-yl)-oxazolidin-5-yl]-ethylamino}-methyl)-1,2-dihydro-pyrrolo[3,2,1-U]quinolin-4-one]",MIC for M. catarrhalis A894,≦0.031 mg/l
"CCCCc1ccc(N2C[C@@H](CNCC3Cn4c(=O)ccc5ccc(F)c3c54)OC2=O)cc1 (mixture of isomers) [Example 38, (RS)-1-({[(R)-3-(4-butyl-phenyl)-2-oxo-oxazolidin-5-ylmethyl]-amino}-methyl)-9-fluoro-1,2-dihydro-pyrrolo[3,2,1-ij]quinolin-4-one]",MIC,16 µg/mL
"O=C1O[C@H](CCNC[C@@H]2Cn3c(=O)ccc4ccc(F)c2c43)CN1c1ccc2c(n1)OCCO2 (racemic) [Example 43, (RS)-1-({2-[(RS)-3-(2,3-dihydro-[1,4]dioxino[2,3-b]pyridin-6-yl)-2-oxo-oxazolidin-5-yl]-ethylamino}-methyl)-9-fluoro-1,2-dihydro-pyrrolo[3,2,1-ij]quinolin-4-one]",MIC,1 µg/mL
"O=C1CSc2ccc(N3C[C@@H](CCCNC4Cn5c(=O)cnc6cccc4c65)OC3=O)nc2N1 (mixture of isomers) [Example 115, (RS)-6-{3-[(R)-2-oxo-3-(3-oxo-3,4-dihydro-2H-pyrido[3,2-b][1,4]thiazin-6-yl)-oxazolidin-5-yl]-propylamino}-5,6-dihydro-pyrrolo[1,2,3-de]quinoxalin-3-one]",MIC,≤ 0.031 µg/mL
"O=C1CSc2ccc(N3C[C@@H](CCCN[C@@H]4Cn5c(=O)ccc6cccc4c65)OC3=O)nc2N1 [Example 137, (S)-1-{3-[(R)-2-oxo-3-(3-oxo-3,4-dihydro-2H-pyrido[3,2-b][1,4]thiazin-6-yl)-oxazolidin-5-yl]-propylamino}-1,2-dihydro-pyrrolo[3,2,1-ij]quinolin-4-one]",MIC,≤ 0.031 µg/mL
"O=C1CSc2ccc(N3C[C@H]([C@H](O)CCN[C@H]4Cn5c(=O)ccc6ccc(F)c4c65)OC3=O)cc2N1 (racemic) [Example 113, (1RS)-9-fluoro-1-{(3RS)-3-hydroxy-3-[(5RS)-2-oxo-3-(3-oxo-3,4-dihydro-2H-benzo[1,4]thiazin-6-yl)-oxazolidin-5-yl]-propylamino}-1,2-dihydro-pyrrolo[3,2,1-ij]quinolin-4-one]",MIC,≤ 0.031 µg/mL
"O=C1CSc2ccc(N3C[C@@H](CCN[C@@H]4Cn5c(=O)ccc6cccc4c65)OC3=O)cc2N1 [Example 87, (S)-1-{2-[(R)-2-oxo-3-(3-oxo-3,4-dihydro-2H-benzo[1,4]thiazin-6-yl)-oxazolidin-5-yl]-ethylamino}-1,2-dihydro-pyrrolo[3,2,1-ij]quinolin-4-one]",MIC,≤ 0.031 µg/mL
"N#Cc1ccc2ccc(=O)n3c2c1C(NCCC[C@@H]1CN(c2ccc4c(n2)NC(=O)CS4)C(=O)O1)C3 (mixture of isomers) [Example 118, (RS)-4-oxo-1-{3-[(R)-2-oxo-3-(3-oxo-3,4-dihydro-2H-pyrido[3,2-b][1,4]thiazin-6-yl)-oxazolidin-5-yl]-propylamino}-1,2-dihydro-4H-pyrrolo[3,2,1-ij]quinoline-9-carbonitrile]",MIC,≤ 0.031 µg/mL
"O=C1CSc2ccc(N3C[C@@H](CCCN[C@@H]4Cn5c(=O)ccc6nccc4c65)OC3=O)cc2N1 [Example 39, (S)-4-{3-[(R)-2-oxo-3-(3-oxo-3,4-dihydro-2H-benzo[1,4]thiazin-6-yl)-oxazolidin-5-yl]-propylamino}-4,5-dihydro-pyrrolo[3,2,1-de][1,5]naphthyridin-7-one]",MIC,≤ 0.031 µg/mL
"O=C1COc2ccc(N3C[C@H](CCCN[C@H]4Cn5c(=O)ccc6ccc(F)c4c65)OC3=O)nc2N1 [Example 193, (R)-9-fluoro-1-{3-[(S)-2-oxo-3-(3-oxo-3,4-dihydro-2H-pyrido[3,2-b][1,4]oxazin-6-yl)-oxazolidin-5-yl]-propylamino}-1,2-dihydro-pyrrolo[3,2,1-ij]quinolin-4-one]",MIC,≤ 0.031 µg/mL
"CN(CCC[C@@H]1CN(c2ccc3c(c2)NC(=O)CS3)C(=O)O1)C1Cn2c(=O)ccc3ccc(F)c1c32 (mixture of isomers) [Example 153, (RS)-9-fluoro-1-(methyl-{3-[(R)-2-oxo-3-(3-oxo-3,4-dihydro-2H-benzo[1,4]thiazin-6-yl)-oxazolidin-5-yl]-propyl}-amino)-1,2-dihydro-pyrrolo[3,2,1-ij]quinolin-4-one]",MIC,≤ 0.031 µg/mL
"O=C1CSc2ccc(N3C[C@H](CNCCC4Cn5c(=O)ccc6ncc(F)c4c65)OC3=O)cc2N1 (mixture of isomers) [Example 16, (4RS)-3-fluoro-4-(2-{[(S)-2-oxo-3-(3-oxo-3,4-dihydro-2H-benzo[1,4]thiazin-6-yl)-oxazolidin-5-ylmethyl]-amino}-ethyl)-4,5-dihydro-pyrrolo[3,2,1-de][1,5]naphthyridin-7-one]",MIC,≤ 0.031 µg/mL
